Results: paper PMC8670242, “Functional Characterization and Structural Insights Into Stereoselectivity of Pulegone Reductase in Menthol Biosynthesis” (Frontiers in Plant Science, 2021)

Target: T1, ArPR (Agastache rugosa, UniProt A0A977TNC5)
T1 construct: pET28a (BamHI/SacI) His-tag fusion, E. coli BL21(DE3), Ni-NTA and gel filtration
Experiment: in vitro reduction, GC
Format: biochemical
Conditions: NADPH

T1 sequence (A0A977TNC5 1-343): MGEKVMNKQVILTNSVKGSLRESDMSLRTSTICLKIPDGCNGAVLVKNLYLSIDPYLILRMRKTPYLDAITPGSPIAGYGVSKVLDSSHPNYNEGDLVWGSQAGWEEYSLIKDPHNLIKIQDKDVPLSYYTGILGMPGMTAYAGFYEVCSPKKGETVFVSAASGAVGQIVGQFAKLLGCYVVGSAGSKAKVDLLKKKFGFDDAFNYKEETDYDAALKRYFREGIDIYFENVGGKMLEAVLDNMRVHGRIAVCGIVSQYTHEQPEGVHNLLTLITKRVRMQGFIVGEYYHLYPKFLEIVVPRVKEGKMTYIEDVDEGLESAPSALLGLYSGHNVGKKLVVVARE

## CC(C)=C1CC[C@H](C)CC1=O [(−)-pulegone]
  in vitro reduction, GC: showed a higher preference for (−)-pulegone over (+)-pulegone
